From patent publication US8119687B2, “Derivatives of dioxan-2-alkyl carbamates, preparation thereof and application thereof in therapeutics” (Sanofi-Aventis, priority 2002, dated 2012)

melting point [°C] | Structure (SMILES)
128 to 130 | CNC(=O)COC(=O)NCCC[C@H]1OC[C@H](c2cccc3cc(OC)ccc32)CO1 [compound 57, 2-(methylamino)-2-oxoethyl trans-3-[5-(6-methoxy-naphthalen-1-yl)-1,3-dioxan-2-yl]propylcarbamate]
144 to 146 | CNC(=O)COC(=O)NCCC[C@H]1OC[C@H](c2cccc3ccc(OC)cc32)CO1 [compound 73, 2-(methylamino)-2-oxoethyl trans-3-[5-(7-methoxy-naphthalen-1-yl)-1,3-dioxan-2-yl]propylcarbamate]
86 to 88 | CNC(=O)COC(=O)NCC[C@H]1OC[C@H](c2cccc3ccccc32)CO1 [compound 39, 2-(methylamino)-2-oxoethyl trans-2-[5-(naphthalen-1-yl)-1,3-dioxan-2-yl]ethylcarbamate]
156 to 158 | COc1ccc2cccc([C@H]3CO[C@H](CCCNC(=O)OCC(N)=O)OC3)c2c1 [compound 72, 2-amino-2-oxoethyl trans-3-[5-(7-methoxynaphthalen-1-yl)-1,3-dioxan-2-yl]propylcarbamate]
93 to 95 | COc1ccc2c(cccc2[C@H]2CO[C@H](CCNC(=O)OCC(F)(F)F)OC2)c1 [compound 56, 2,2,2-trifluoroethyl trans-2-[5-(6-methoxynaphthalen-1-yl)-1,3-dioxan-2-yl]ethylcarbamate]
154 | CNC(=O)COC(=O)NCCC[C@H]1OC[C@H](c2cccc3ccccc32)CO1 [compound 40, 2-(methylamino)-2-oxoethyl trans-3-[5-(naphthalen-1-yl)-1,3-dioxan-2-yl]propylcarbamate]
182 to 184 | CNC(=O)COC(=O)NCCC[C@H]1OC[C@H](c2cccc3cc(Cl)ccc32)CO1 [compound 48, 2-(methylamino)-2-oxoethyl trans-3-[5-(6-chloro-naphthalen-1-yl)-1,3-dioxan-2-yl]propylcarbamate]
140 to 148 | CNC(=O)COC(=O)NCCC[C@H]1OC[C@H](c2cccc3cc(O)ccc32)CO1 [compound 71, 2-(methylamino)-2-oxoethyl trans-3-[5-(6-hydroxy-naphthalen-1-yl)-1,3-dioxan-2-yl]propylcarbamate]
170 to 172 | CCNC(=O)COC(=O)NCCC[C@H]1OC[C@H](c2cccc3cc(OC)ccc32)CO1 [compound 58, 2-(ethylamino)-2-oxoethyl trans-3-[5-(6-methoxy-naphthalen-1-yl)-1,3-dioxan-2-yl]propylcarbamate]
176 | COc1ccc2c(cccc2[C@H]2CO[C@H](CCCNC(=O)OCC(=O)NC3CC3)OC2)c1 [Compound No. 61, 2-(Cyclopropylamino)-2-oxoethyl trans-3-[5-(6-methoxy-naphthalen-1-yl)-1,3-dioxan-2-yl]propylcarbamate]
136 to 138 | CNC(=O)COC(=O)NCC[C@H]1OC[C@H](c2cccc3cc(OC)ccc32)CO1 [compound 54, 2-(methylamino)-2-oxoethyl trans-2-[5-(6-methoxy-naphthalen-1-yl)-1,3-dioxan-2-yl]ethylcarbamate]

Continued, molecule first:

Structure (SMILES) | melting point [°C]
O=C(NCC[C@H]1OC[C@H](c2cccc3ccccc32)CO1)Oc1ccccc1 | 131 to 133
O=C(NCCC[C@H]1OC[C@H](c2ccc3ccccc3c2)CO1)OCC(F)(F)F [compound 78, 2,2,2-trifluoroethyl trans-3-[5-(naphthalen-2-yl)-1,3-dioxan-2-yl]propylcarbamate] | 130 to 132
COc1ccc2c(cccc2[C@H]2CO[C@H](CCCNC(=O)OCC(F)(F)F)OC2)c1 [compound 62, 2,2,2-trifluoroethyl trans-3-[5-(6-methoxynaphthalen-1-yl)-1,3-dioxan-2-yl]propylcarbamate] | 111
O=C(NCCC[C@H]1OC[C@H](c2cccc3ccccc32)CO1)Oc1ccccc1 | 125 to 127
COc1ccc2c(cccc2[C@H]2CO[C@H](CCCNC(=O)OCC(=O)NCc3ccncc3)OC2)c1 [compound 60, 2-[(pyridin-4-yl)methylamino]-2-oxoethyl trans-3-[5-(6-methoxynaphthalen-1-yl)-1,3-dioxan-2-yl]propylcarbamate] | 152
CNC(=O)COC(=O)NCCC[C@H]1OC[C@H](c2ccc(Cl)c3ccccc32)CO1 [compound 47, 2-(methylamino)-2-oxoethyl trans-3-[5-(4-chloro-naphthalen-1-yl)-1,3-dioxan-2-yl]propylcarbamate] | 190 to 192
COc1ccc2c(cccc2[C@H]2CO[C@H](CCCNC(=O)Oc3ccccc3)OC2)c1 | 128
O=C(NCCC[C@H]1OC[C@H](c2cccc3cc(OCC4CC4)ccc32)CO1)Oc1ccc(Cl)cc1 | 159 to 162
O=C(NCCC[C@H]1OC[C@H](c2cccc3cc(OCC4CC4)ccc32)CO1)OCC(F)(F)F [Compound No. 68, 2,2,2-Trifluoroethyl trans-3-[5-(6-cyclopropylmethoxy-naphthalen-1-yl)-1,3-dioxan-2-yl]propylcarbamate] | 105 to 107
O=C(NCCC[C@H]1OC[C@H](c2ccc3ccccc3c2)CO1)Oc1ccccc1 | 130 to 131
COc1ccc2cccc([C@H]3CO[C@H](CCCNC(=O)OCC(F)(F)F)OC3)c2c1 [compound 74, 2,2,2-trifluoroethyl trans-3-[5-(7-methoxynaphthalen-1-yl)-1,3-dioxan-2-yl]propylcarbamate] | 93 to 96
COc1ccc2c(cccc2[C@H]2CO[C@H](CCNC(=O)Oc3ccc(Cl)cc3)OC2)c1 | 129 to 131
NC(=O)COC(=O)NCCC[C@H]1OC[C@H](c2cccc3cc(OCC4CC4)ccc32)CO1 [compound 66, 2-amino-2-oxoethyl trans-3-[5-(6-cyclopropylmethoxy-naphthalen-1-yl)-1,3-dioxan-2-yl]propylcarbamate] | 137 to 139
CNC(=O)COC(=O)NCCC[C@H]1OC[C@H](c2ccc3ccccc3c2)CO1 [compound 77, 2-(methylamino)-2-oxoethyl trans-3-[5-(naphthalen-2-yl)-1,3-dioxan-2-yl]propylcarbamate] | 144 to 146
NC(=O)COC(=O)NCCC[C@H]1OC[C@H](c2cccc3ccccc32)CO1 [compound 38, 2-amino-2-oxoethyl trans-3-[5-(naphthalen-1-yl)-1,3-dioxan-2-yl]propylcarbamate] | 112 to 114
O=C(NCC[C@H]1OC[C@H](c2cccc3ccccc32)CO1)OCC(F)(F)F [compound 41, 2,2,2-trifluoroethyl trans-2-[5-(naphthalen-1-yl)-1,3-dioxan-2-yl]ethylcarbamate] | 111 to 113
NC(=O)COC(=O)NCCC[C@H]1OC[C@H](c2cccc3cc(O)ccc32)CO1 [compound 70, 2-amino-2-oxoethyl trans-3-[5-(6-hydroxynaphthalen-1-yl)-1,3-dioxan-2-yl]propylcarbamate] | 166 to 170
COc1ccc2cccc([C@H]3CO[C@H](CCCNC(=O)Oc4ccccc4)OC3)c2c1 | 151 to 153
O=C(NCCC[C@H]1OC[C@H](c2cccc3ccccc32)CO1)OCC(F)(F)F [compound 42, 2,2,2-trifluoroethyl trans-3-[5-(naphthalen-1-yl)-1,3-dioxan-2-yl]propylcarbamate] | 89 to 92
NC(=O)COC(=O)NCCC[C@H]1OC[C@H](c2ccc(Cl)c3ccccc32)CO1 [Compound No. 46, 2-Amino-2-oxoethyl trans-3-[5-(4-chloronaphthalen-1-yl)-1,3-dioxan-2-yl]propylcarbamate] | 176 to 178
